The values that follow come from PubChem BioAssay AID2384 (Southern Research Specialized Biocontainment Screening …, 2010).

SMILES strings stand for the structures.

This experiment concerns S. typhi GFP reporter counter-screen, fluorescence, 4 h. Nature of the experiment: inhibitors in S. typhi counter-screen strain, dose response, counter-screen for PhoP regulon inhibitor project, fluorescence, 4 h (AID 2384).
Broadly, the IC50 is the concentration that gives 50% inhibition. On to `O=C(N/N=C/c1cc(Cl)cc(Cl)c1O)c1ccncc1`, for which the IC50 was 33.7 µM. The same measure for `N=c1c2c(-c3ccccc3)c(-c3ccccc3)n(Cc3ccco3)c2ncn1CCCn1ccnc1`: 39.4 µM. The same measure for `CCN1CCCC1CNC(=O)c1cc2cc(F)ccc2[nH]1` (configuration not stated): 19 µM.

With `CCCCCN=C(N)N/N=C/c1c[nH]c2ccc(OC)cc12`, the IC50 is 26.9 µM. The same measure for `CCc1ccc2c(c1)Sc1ccccc1CC2N1CCN(C)CC1` (configuration not stated): 31.3 µM. The same measure for `OCCCCNCc1ccc(OCc2ccc(Cl)cc2Cl)cc1`: 56.7 µM; for `COc1cc([N+](=O)[O-])cc(/C=N/NC(=O)CSc2ccccn2)c1O`: 93.2 µM. The same measure for `CC(=O)Oc1ccccc1C(=O)Nc1ncc([N+](=O)[O-])s1`: 92 µM; for `OC(CNCCc1ccc(Cl)cc1)COc1cc(Cl)ccc1Cl` (configuration not stated): 80.6 µM; for `CN(Cc1ccccc1O)CC1CCCN(CCc2ccc(Cl)cc2)C1` (configuration not stated): 16.9 µM. As for `OCCNCc1cc(Br)ccc1OCc1ccc(Cl)cc1`, the concentration for half-maximal inhibition (IC50) was 34.7 µM. The same measure for `O=C(Nc1nc(-c2ccccn2)cs1)c1ccc(Br)s1`: 14.5 µM; for `CSc1ccc2c(c1)N(CCC1CCCCN1C)c1ccccc1S2` (configuration not stated): 37.2 µM. The same measure for `O=C(Nc1c2ccccc2nc2ccccc12)C(Cl)(Cl)Cl`: 79.8 µM.

For `CC(=O)NC(c1ccc(Cl)cc1Cl)c1ccc2cccnc2c1O` (configuration not stated), the IC50 is 39.6 µM. The same measure for `Cc1oc2c(O)c(O)ccc2c(=O)c1-c1ccccc1`: 100 µM; for `Cc1cccc(OCC(O)Cn2c(=N)n(CCN3CCCCC3)c3ccccc32)c1` (configuration not stated): 10.4 µM. The same measure for `C/C(=C\C(=O)OCCCCCCCCC(=O)O)C[C@@H]1OC[C@H](C[C@@H]2O[C@H]2[C@@H](C)[C@H](C)O)[C@@H](O)[C@H]1O`: 38.4 µM; for `CCCCCCCCC1=NCCc2c1[nH]c1ccccc21`: 78.4 µM. The same measure for `Cc1cccc(C(=O)NNC(=S)NC(=O)c2cccs2)c1`: 66.3 µM; for `CN1CCN(c2ccc(NC(=O)CSc3ccccc3)cc2F)CC1`: 104 µM. Take `O=C(CNC(=O)c1cccc(F)c1)N/N=C/c1ccc([N+](=O)[O-])s1`: the IC50 is 36.9 µM.

Turning to `CN1CCCN(C(c2ccccc2)c2ccc(Cl)cc2)CC1` (configuration not stated), the IC50 was 37.7 µM. The same measure for `N=c1n(CC(=O)c2ccc(Br)s2)c2ccccc2n1Cc1ccccc1`: 27.3 µM; for `CCOc1ccc(Nc2c3ccccc3nc3ccccc23)cc1`: 19.6 µM. The same measure for `O=C(N/N=C/c1cc(Br)cc(Br)c1O)c1ccncc1`: 45.3 µM; for `c1ccc(CN2CCC(Nc3nc(-c4cccs4)nc4ccccc34)CC2)cc1`: 37.2 µM; for `CN1CCN(C2=Cc3ccccc3Sc3cc(F)c(Cl)cc32)CC1`: 27 µM.

As to `Oc1c(CN2CCCCC2)cc(Br)c2cccnc12`, the IC50 was 15.7 µM. The same measure for `CCCOc1ccc(C(=O)NNC(=S)NC(=O)c2ccco2)cc1`: 36.8 µM. The same measure for `CN1CCC(OC(=O)c2ccc(Cl)cc2Cl)CC1`: 36.8 µM; for `Cc1ccc(Nc2nc(N)c3ccccc3n2)cc1Cl`: 36.3 µM. The same measure for `O=C1NCCCC1C(=O)N/N=C/c1cc([N+](=O)[O-])ccc1O` (configuration not stated): 67.2 µM; for `Cc1ccc2cc(CN(CCN(C)C)C(=O)Nc3ccc(Cl)cc3)c(=O)[nH]c2c1`: 50.3 µM; for `Cc1ccc(C)c(Nc2cc(C)nc3ccccc23)c1`: 54.9 µM.

As for `CN1CCN(C(c2cccc(Cl)c2)c2ccccc2Cl)CC1` (configuration not stated), the IC50 is 68.2 µM. Regarding `O=C(O)c1csc(-c2ccc(Cl)cc2)n1`, the IC50 is 120 µM.

Consider `Oc1cccc(C=NCc2ccccc2)c1O`, for which the IC50 was 73.7 µM. The same measure for `COC(=O)N/N=C/c1c[n+]([O-])c2ccccc2[n+]1[O-]`: 92.1 µM; for `Cc1cc(=O)[nH]c(-n2nc(C)cc2C)n1`: 68.8 µM. Consider `Nc1ncn(C2O[C@H](CO)[C@@H](O)[C@H]2O)c(=O)n1` (some centres not stated), for which the IC50 is 35.2 µM. The same measure for `CC(=O)NC(c1cccc([N+](=O)[O-])c1)c1ccc2cccnc2c1O` (configuration not stated): 101 µM.
